Reference: ChEMBL document CHEMBL1201862, “PubChem BioAssay data set” (2004)
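Test compounds were applied to cells in 96-well plates for 48 hours at 5 doses. At the GI50, growth is halved.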 The source made the active and inactive calls. Cut-off read from the data, not from the text of the source: active = GI50 up to about 1.1 µM and inactive = higher.

Columns and labels:
Assay in all cases: DTP human tumour cell line panel, 48 h
[1] = tested on: RXF 393
[2] = tested on: UACC-62
[3] = tested on: Malme-3M
[4] = tested on: UACC-257
[5] = tested on: HL-60
[6] = tested on: SNB-75
[7] = tested on: NCI-H522
[8] = tested on: HCT-116
[9] = tested on: SK-OV-3
[10] = tested on: HCT-15
[11] = tested on: M14
[12] = tested on: BT-549
[13] = tested on: RPMI-8226
[14] = tested on: OVCAR-5
[15] = tested on: A549
[16] = tested on: ACHN
[17] = tested on: PC-3
[18] = tested on: MDA-MB-435
[19] = tested on: COLO 205

## COc1cc2c(OC)c(c1)CCCC1=CC(=O)C=C(CCC2)C1=O
[1]
  GI50: 26.7 µM (inactive)
[2]
  GI50: 31.8 µM (inactive)
[3]
  GI50: 10.4 µM (inactive)
[4]
  GI50: 35 µM (inactive)
[5]
  GI50: 6.1 µM (inactive)
[6]
  GI50: > 60.3 µM (inactive)
[7]
  GI50: 21 µM (inactive)
[8]
  GI50: 17.1 µM (inactive)
[9]
  GI50: 56.9 µM (inactive)
[10]
  GI50: 33.6 µM
[11]
  GI50: 26.7 µM (inactive)
[12]
  GI50: 33.3 µM (inactive)
[13]
  GI50: 7.6 µM (inactive)
[14]
  GI50: > 100 µM (inactive)
[15]
  GI50: 58.7 µM (inactive)
[16]
  GI50: 47.5 µM (inactive)
[17]
  GI50: 28.6 µM (inactive)
[18]
  GI50: 23.8 µM (inactive)
[19]
  GI50: 21.9 µM (inactive)

## Cc1cccc2nc3cccc(C(=O)NCCC[N+](C)(CCCNC(=O)c4cccc5nc6cccc(C)c6nc45)Cc4c([N+](=O)[O-])ncn4C)c3nc12
[1]
  GI50: 4.01 µM (inactive)
[2]
  GI50: 0.853 µM (active)
[3]
  GI50: 3.05 µM (inactive)
[4]
  GI50: 5.22 µM (inactive)
[5]
  GI50: 0.199 µM (active)
[6]
  GI50: 233 µM (inactive)
[7]
  GI50: 2.1 µM (inactive)
[8]
  GI50: 1.4 µM (inactive)
[9]
  GI50: 44.8 µM (inactive)
[10]
  GI50: 0.82 µM
[11]
  GI50: 9.68 µM (inactive)
[12]
  GI50: 41.7 µM (inactive)
[13]
  GI50: 0.0436 µM (active)
[14]
  GI50: 1.91 µM (inactive)
[15]
  GI50: 0.189 µM (active)
[16]
  GI50: 0.136 µM (active)
[17]
  GI50: 1.46 µM (inactive)
[18]
  GI50: 5.13 µM (inactive)
[19]
  GI50: 0.705 µM (active)

## COc1cc(OCc2ccc3nc(OC)c(OC)nc3c2)cc(OC)c1OC
[1]
  GI50: > 10 µM (inactive)
[2]
  GI50: > 10 µM (inactive)
[3]
  GI50: > 10 µM (inactive)
[4]
  GI50: > 10 µM (inactive)
[5]
  GI50: > 10 µM (inactive)
[6]
  GI50: > 10 µM (inactive)
[7]
  GI50: > 10 µM (inactive)
[8]
  GI50: > 10 µM (inactive)
[9]
  GI50: > 10 µM (inactive)
[10]
  GI50: > 10 µM
[11]
  GI50: > 10 µM (inactive)
[12]
  GI50: > 3.72 µM (inactive)
[13]
  GI50: > 10 µM (inactive)
[14]
  GI50: > 10 µM (inactive)
[15]
  GI50: > 10 µM (inactive)
[16]
  GI50: > 10 µM (inactive)
[17]
  GI50: > 3.08 µM (inactive)
[18]
  GI50: > 10 µM (inactive)
[19]
  GI50: > 10 µM (inactive)

## O=[N+]([O-])c1ccc(N2CCC(CCCC3CCN(c4ccc([N+](=O)[O-])cc4[N+](=O)[O-])CC3)CC2)c([N+](=O)[O-])c1
[1]
  GI50: 15.3 µM (inactive)
[2]
  GI50: 11.9 µM (inactive)
[3]
  GI50: 19.1 µM (inactive)
[4]
  GI50: 14.6 µM (inactive)
[5]
  GI50: 15.4 µM (inactive)
[6]
  GI50: 14.7 µM (inactive)
[7]
  GI50: 18.2 µM (inactive)
[8]
  GI50: 26.5 µM (inactive)
[9]
  GI50: 18.5 µM (inactive)
[10]
  GI50: 18.3 µM
[11]
  GI50: 13.2 µM (inactive)
[12]
  GI50: 24.4 µM (inactive)
[13]
  GI50: 13.4 µM (inactive)
[14]
  GI50: 16.4 µM (inactive)
[15]
  GI50: 16.4 µM (inactive)
[16]
  GI50: 16.1 µM (inactive)
[17]
  GI50: 15.8 µM (inactive)
[18]
  GI50: 13.9 µM (inactive)
[19]
  GI50: 14.2 µM (inactive)

## CCOC(=O)NC(Nc1cccc(F)c1)(C(F)(F)F)C(F)(F)F
[1]
  GI50: > 100 µM (inactive)
[2]
  GI50: 86.5 µM (inactive)
[3]
  GI50: > 100 µM (inactive)
[4]
  GI50: > 100 µM (inactive)
[5]
  GI50: > 100 µM (inactive)
[6]
  GI50: > 100 µM (inactive)
[7]
  GI50: > 100 µM (inactive)
[8]
  GI50: > 100 µM (inactive)
[9]
  GI50: > 100 µM (inactive)
[10]
  GI50: > 100 µM
[11]
  GI50: > 100 µM (inactive)
[12]
  GI50: > 100 µM (inactive)
[13]
  GI50: > 100 µM (inactive)
[14]
  GI50: > 100 µM (inactive)
[15]
  GI50: > 100 µM (inactive)
[16]
  GI50: > 100 µM (inactive)
[17]
  GI50: > 100 µM (inactive)
[18]
  GI50: > 100 µM (inactive)
[19]
  GI50: > 100 µM (inactive)

## CO/C=C(/C(=O)OC)c1ccccc1COc1cccc(C(F)(F)F)c1
[1]
  GI50: 11.6 µM (inactive)
[2]
  GI50: 0.638 µM (active)
[3]
  GI50: 1.41 µM (inactive)
[4]
  GI50: 0.676 µM (active)
[5]
  GI50: < 0.01 µM (active)
[6]
  GI50: 7.01 µM (inactive)
[7]
  GI50: 0.526 µM (active)
[8]
  GI50: 2.4 µM (inactive)
[9]
  GI50: 27.9 µM (inactive)
[10]
  GI50: 4.19 µM
[11]
  GI50: 68.7 µM (inactive)
[12]
  GI50: 6.28 µM (inactive)
[13]
  GI50: 0.408 µM (active)
[14]
  GI50: > 100 µM (inactive)
[15]
  GI50: 2.91 µM (inactive)
[16]
  GI50: 3.63 µM (inactive)
[17]
  GI50: 7.43 µM (inactive)
[18]
  GI50: 1.01 µM (active)
[19]
  GI50: 6.61 µM (inactive)

## Cc1ccc2ccc(O)cc2c1
[1]
  GI50: 44.9 µM (inactive)
[2]
  GI50: 43.6 µM (inactive)
[3]
  GI50: 48.2 µM (inactive)
[4]
  GI50: 64.3 µM (inactive)
[5]
  GI50: 18.5 µM (inactive)
[6]
  GI50: 48.9 µM (inactive)
[7]
  GI50: 19.9 µM (inactive)
[8]
  GI50: 68.9 µM (inactive)
[9]
  GI50: 26.9 µM (inactive)
[10]
  GI50: 35.6 µM
[11]
  GI50: 46.5 µM (inactive)
[12]
  GI50: 26.7 µM (inactive)
[13]
  GI50: 27.9 µM (inactive)
[14]
  GI50: 55.8 µM (inactive)
[15]
  GI50: 72.4 µM (inactive)
[16]
  GI50: 53.6 µM (inactive)
[17]
  GI50: 21.1 µM (inactive)
[18]
  GI50: 19 µM (inactive)
[19]
  GI50: > 100 µM (inactive)
